Measurements taken from patent publication US10590153B2, “Process for producing crystalline DTPMP” (Zschimmer & Schwarz Mohsdorf GmbH & Co. KG, priority 2014, dated 2020).

Assays:
[1] = about 55% humidity at 22° C.
Description: In a further test, the influence of the degree of neutralisation of the phosphonic acid DTPMP on the hygroscopicity was studied, on account of its industrial relevance, especially the sodium salts. To that end, 10 g of sample were stored in four crystallisation dishes of equal size in a desiccator under constant humidity. Via a saturated magnesium nitrate solution with precipitate (about ⅓ precipitate in ⅔ of the solution), about 55% by weight humidity is established at 22° C. The water absorption of the samples was determined gravimetrically twice daily over a period of 22 days as the difference in mass (see FIG. 15).
A crystallisate of the α crystal modification with a foreign acid content of 3.8% by weight chloride and in total 6.6% by weight H3PO4 and H3PO3 per 100% by mass DTPMP was dissolved again. Portions were neutralised with sodium hydroxide solution to pH (1% strength)=1.7 for the Na0.5-DTPMP salt, pH (1% strength)=2.1 for the Na3-DTPMP salt and pH (1% strength)=6.6 for the Na7-DTPMP salt.

[2] = Solubility of DTPMP at room temperature in dependence on the concentration of sodium ions and chloride ions; assay type: physicochemical; settings: chloride ions in the range of from 1 to 4% by mass, room temperature (FIG. 13)
Excerpt: FIG. 13: Solubility of DTPMP at room temperature in dependence on the concentration of sodium ions and chloride ions in % by mass.

[3] = Determination of the hygroscopicity (gravimetric water absorption in desiccator at constant humidity); assay type: physicochemical; settings: 22±2° C., relative humidity of 55%; for Relative water absorption: determined daily over 12 days
Description: In order to determine the hygroscopicity, solid samples were stored in 25 ml glass beakers in a desiccator under constant humidity. […] The water absorption of the samples was determined gravimetrically once daily over a period of 12 days as the difference in mass (see FIG. 14).
Two spray-dried powders were tested as comparison with crystallisate samples of the crystallisates of the α, β and γ crystal modification.
A DTPMP synthesis product having the quality parameters from Table 4 used as the starting slurry for the crystallisation was spray dried with a Büchi-Mini Spray Dryer B-290.

[4] = Bulk density of the samples used for the hygroscopicity test; assay type: physicochemical

Appearance of the sample after 22 days [1] | Relative water absorption [3] [% by mass/day] | Bulk density [4] [g/mL] | Compound | also measured
still recognisable |  |  | O=P(O)(O)CN(CCN(CP(=O)(O)O)CP(=O)(O)O)CCN(CP(=O)(O)O)CP(=O)(O)O [DTPMP acid, diethylenetriamine penta(methylenephosphonic acid)] | 
 |  |  | O=P(O)(O)CN(CCN(CP(=O)(O)O)CP(=O)(O)O)CCN(CP(=O)(O)O)CP(=O)(O)O [DTPMP, diethylenetriamine penta(methylenephosphonic acid)] | Solubility of DTPMP (in words) [2]: further reduction in solubility
liquefied |  |  | O=P([O-])([O-])CN(CCN(CCN(CP(=O)([O-])[O-])CP(=O)([O-])O)CP(=O)([O-])O)CP(=O)([O-])O.[Na+].[Na+].[Na+].[Na+].[Na+].[Na+].[Na+] [Na7 salt] | Appearance of the sample after half the test time ([1]; after only half the test time (of 22 days)): visibly contracting to form a block
 | 0.29 | 0.27 | O=P(O)(O)CN(CCN(CP(=O)(O)O)CP(=O)(O)O)CCN(CP(=O)(O)O)CP(=O)(O)O [amorphous powder from spray drying of a DTPMP acid purified ] [reference compound] | Hygroscopicity / water absorption capacity (in words) ([3]; listed as DTPMP quality purified by recrystallisation and spray dried): lower water absorption capacity than the unpurified crude product
 | 0.40 | 0.27 | O=P(O)(O)CN(CCN(CP(=O)(O)O)CP(=O)(O)O)CCN(CP(=O)(O)O)CP(=O)(O)O [amorphous powder from spray drying of an unpurified DTPMP sy] [reference compound] | Hygroscopicity / water absorption capacity (in words) ([3]; listed as Spray-dried powders of the unpurified DTPMP synthesis product): greatest hygroscopicity
